Experimental data from paper PMC12349913 (Biological & pharmaceutical bulletin, 2024).

Target: full-length Plk1 (Homo sapiens, UniProt P53350)
Test: Fluorescence polarization
Details: FP assay, serially diluted full-length protein

Chain of full-length Plk1 (P53350 whole entry): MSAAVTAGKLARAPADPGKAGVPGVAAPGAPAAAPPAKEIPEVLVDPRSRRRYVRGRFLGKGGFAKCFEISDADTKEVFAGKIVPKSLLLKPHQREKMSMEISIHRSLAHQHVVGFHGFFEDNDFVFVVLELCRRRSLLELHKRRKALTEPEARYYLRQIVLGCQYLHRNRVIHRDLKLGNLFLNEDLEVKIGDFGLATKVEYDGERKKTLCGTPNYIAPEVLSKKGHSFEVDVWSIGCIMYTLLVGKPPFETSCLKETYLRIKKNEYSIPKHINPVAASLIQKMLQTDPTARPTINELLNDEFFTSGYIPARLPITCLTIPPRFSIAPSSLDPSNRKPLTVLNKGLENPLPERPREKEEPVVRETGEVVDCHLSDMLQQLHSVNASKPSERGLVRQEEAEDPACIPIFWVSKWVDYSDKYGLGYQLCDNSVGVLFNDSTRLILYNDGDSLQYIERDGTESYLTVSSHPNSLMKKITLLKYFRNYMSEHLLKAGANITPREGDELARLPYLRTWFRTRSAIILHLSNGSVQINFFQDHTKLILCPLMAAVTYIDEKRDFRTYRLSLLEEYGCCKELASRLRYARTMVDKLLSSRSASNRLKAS

## 5-carboxyfluorescein (5CF)-GPMQSpTPLNG-NH2 [5CF-GPMQSpTPLNG-NH2]
  FP signal response to full-length Plk1: did not show significant FP signal enhancement
